Reference: PubChem BioAssay AID1963870 (Molecular Pharmacology Branch, DTP, NCI, 2024)

Test system: 292921-168-R-J2-PDC KRAS tumor spheroid viability
Test: Anticancer human tumor 292921-168-R-J2-PDC patient-derived pancreatic carcinoma cell line growth inhibition [KRAS2]
Conditions: spheroids with HUVEC and MSC; for viability, T/C: stronger effect = lower value
From the text: Multicellular complex tumor spheroid response to RAS pathway inhibitors in combination with a targeted agents in patient-derived cell lines with oncogenic KRAS variants from multiple cancer types
A high-throughput screen of multi-cell type tumor spheroids was designed to identify active combinations of targeted small molecules and KRAS pathway inhibitors. Complex spheroids include a stromal component modeled by human endothelial cells (HUVEC) and fibroblasts modeled by human mesenchymal stem cells (MSCs). The concentration ranges selected for each drug and investigational agent were based upon clinically achievable concentrations if the clinical Cmax of the agent was known.
Compounds. The drugs and investigational agents: BI-3406 (NSC825286), BAY-293 (NSC824723), batoprotafib (TNO155; NSC825523), sotorasib (AMG 510; NSC818433), MRTX1257 (NSC819558), elimusertib (BAY 1895344; NSC800525), molibresib (GSK525762; NSC774829), temuterkib (LY3214996; NSC803410), venetoclax (NSC766270), alisertib (NSC759677), olaparib (NSC753686), talazoparib (NSC767125), erdafitinib (NSC781556), ipatasertib (NSC767898), cabozantinib (NSC761068), nintedanib (NSC756659), abemaciclib (NSC768073), docetaxel (NSC628503), trametinib (NSC758246), and sapanisertib (NSC764658) were obtained from the National Cancer Institute (NCI) Developmental Therapeutics Program Chemical Repository. The FDA-approved anticancer drug set is available from the Developmental Therapeutics Program. […] The stock solutions were prepared in dimethyl sulfoxide (DMSO, Sigma-Aldrich, St. Louis, MO, cat. D2650) at 800-fold the tested concentration and stored at -70 degrees C prior to their use. All drugs and investigational agents were tested over a range starting from a high concentration at or near the clinical Cmax and decreasing in half-log increments. If the clinical Cmax for an agent had not been determined, the highest concentration tested was 10 microM.
Cell Culture. All cells were maintained in an incubator at 37 degrees C and 5% CO2 with 95% humidity. The PDC lines were cultured according to standard operating procedures established by the NCI PDMR (https://pdmr.cancer.gov/sops/default.htm). Briefly, all PDCs were thawed and cultured in Matrigel-coated flasks prepared with a working solution of 1X Ham's F-12 nutrient mix, without supplementation (Invitrogen, Waltham, MA, cat. 11765054), 100 U/mL penicillin-streptomycin (Invitrogen, cat. 15140122), and 2.5% Matrigel (Corning Inc., Corning, NY, cat. 354248) for the first three passages. All PDCs were cultured in complete DMEM/F-12 media containing advanced DMEM/F-12 (Invitrogen, cat. 12634028), 4.9% defined fetal bovine serum, heat inactivated (HyClone Laboratories Inc., Logan, UT, cat. SH30070.03HI), 389 ng/mL hydrocortisone (Sigma-Aldrich, cat. H4001), 9.7 ng/mL human EGF recombinant protein (Invitrogen, cat. PHG0313), 23.4 microg/mL adenine (Sigma-Aldrich, cat. A2786), 97.3 U/mL penicillin-streptomycin (Invitrogen, cat. 15140122), 1.9 mM L-glutamine (Invitrogen, cat. 25030081), and 9.7 microM Y-27632 dihydrochloride (Tocris Bioscience, Bristol, United Kingdom, cat. 1254). The PDCs were cultured in complete DMEM/F12 media without 9.7 microM Y-27632 dihydrochloride for at least two passages prior to the screen. The established cell line HOP-62 was cultured in RPMI 1640 medium, HEPES (Invitrogen, cat. 22400105) with 10% defined fetal bovine serum (HyClone Laboratories Inc., cat. SH30070.03) and 2 mM L-glutamine (Invitrogen, cat. 25030081). The pooled donor HUVEC were cultured in endothelial cell growth medium 2 (PromoCell, Heidelberg, Germany, cat. C-22011) and the hMSC were cultured in mesenchymal stem cell growth medium 2 (PromoCell, cat. C-28009). For all experiments, HUVEC and hMSC were used at passages </=5, while the malignant cell lines were used at passages </=15. […]

[1] = curve of first compound, second compound 0.1 µM
[2] = curve of first compound, second compound 0.316 µM
[3] = curve of first compound, second compound 1 µM
[4] = curve of first compound, second compound 3.16 µM
[5] = second compound 0.1 µM, first compound 0.0316 µM
[6] = second compound 0.1 µM, first compound 0.1 µM
[7] = second compound 0.1 µM, first compound 0.316 µM
[8] = second compound 0.1 µM, first compound 1 µM
[9] = second compound 0.1 µM, first compound 3.16 µM
[10] = second compound 0.1 µM, first compound 10 µM
[11] = second compound 0.316 µM, first compound 0.0316 µM
[12] = second compound 0.316 µM, first compound 0.1 µM
[13] = second compound 0.316 µM, first compound 0.316 µM
[14] = second compound 0.316 µM, first compound 1 µM
[15] = second compound 0.316 µM, first compound 3.16 µM
[16] = second compound 0.316 µM, first compound 10 µM
[17] = second compound 1 µM, first compound 0.0316 µM
[18] = second compound 1 µM, first compound 0.1 µM
[19] = second compound 1 µM, first compound 0.316 µM
[20] = second compound 1 µM, first compound 1 µM
[21] = second compound 1 µM, first compound 3.16 µM
[22] = second compound 1 µM, first compound 10 µM
[23] = second compound 3.16 µM, first compound 0.0316 µM
[24] = second compound 3.16 µM, first compound 0.1 µM
[25] = second compound 3.16 µM, first compound 0.316 µM
[26] = second compound 3.16 µM, first compound 1 µM
[27] = second compound 3.16 µM, first compound 3.16 µM
[28] = second compound 3.16 µM, first compound 10 µM
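Also: drug exposure lasted seven days after spheroids formed for three days.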
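For viability, T/C in this document: percent of DMSO vehicle control viability which is 100%.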

`CC(C)NCC(C(=O)N1CCN(c2ncnc3c2C(C)CC3O)CC1)c1ccc(Cl)cc1` (configuration not stated) + C=CC(=O)N1CCN(c2nc(OCC3CCCN3C)nc3c2CCN(c2cccc4cccc(C)c24)C3)CC1CC#N showed an IC50 (curve of first compound, second compound 0.0316 µM) of over 10 µM, an IC50 [1] of over 10 µM and an IC50 [2] of 6.01 µM. The IC50 [3] was under 0.0316 µM, the IC50 [4] was under 0.0316 µM and the viability, T/C (second compound 0.0316 µM, first compound 0.0316 µM) was 88%. The viability, T/C (second compound 0.0316 µM, first compound 0.1 µM) was 84.6%, the viability, T/C (second compound 0.0316 µM, first compound 0.316 µM) was 84.5% and the viability, T/C (second compound 0.0316 µM, first compound 1 µM) was 82%. It also gave a viability, T/C (second compound 0.0316 µM, first compound 3.16 µM) of 73.9%, a viability, T/C (second compound 0.0316 µM, first compound 10 µM) of 54.7% and a viability, T/C [5] of 85.2%. It also gave a viability, T/C [6] of 78.6%, a viability, T/C [7] of 85.3% and a viability, T/C [8] of 79.3%. The viability, T/C [9] was 74.4%, the viability, T/C [10] was 51.8% and the viability, T/C [11] was 71.5%. The viability, T/C [12] was 68.5%, the viability, T/C [13] was 65.1% and the viability, T/C [14] was 69.2%. It also gave a viability, T/C [15] of 59%, a viability, T/C [16] of 42.3% and a viability, T/C [17] of 36.7%. For the same compound, the viability, T/C [18] was 28.8%, the viability, T/C [19] was 28.9% and the viability, T/C [20] was 32.1%. The viability, T/C [21] was 28.1%, the viability, T/C [22] was 21% and the viability, T/C [23] was 0.1%. It also gave a viability, T/C [24] of 0.09%, a viability, T/C [25] of 0.09% and a viability, T/C [26] of 0.1%. The viability, T/C [27] was 0.11% and the viability, T/C [28] was 0.21%.

Work on `Cn1nccc1Nc1nccc(-c2cc3c(s2)C(C)(C)N(CCN2CCOCC2)C3=O)n1` + CC1OCC2(CCN(c3cnc(Sc4ccnc(N)c4Cl)c(N)n3)CC2)C1N yielded an IC50 [1] of 0.0393 µM, an IC50 [2] of under 0.0316 µM and an IC50 [3] of under 0.0316 µM. For the same compound, the IC50 [4] was under 0.0316 µM, the IC50 (curve of first compound, second compound 10 µM) was under 0.0316 µM and the viability, T/C [5] was 54.5%. For the same compound, the viability, T/C [6] was 30.8%, the viability, T/C [7] was 19.1% and the viability, T/C [8] was 11.7%. The viability, T/C [9] was 10.5%, the viability, T/C [10] was 11.7% and the viability, T/C [11] was 37.1%. For the same compound, the viability, T/C [12] was 25.7%, the viability, T/C [13] was 12.6% and the viability, T/C [14] was 10.9%. The viability, T/C [15] was 8.88%, the viability, T/C [16] was 9.52% and the viability, T/C [17] was 33.9%. For the same compound, the viability, T/C [18] was 21%, the viability, T/C [19] was 13.1% and the viability, T/C [20] was 9.76%. It also gave a viability, T/C [21] of 8.56%, a viability, T/C [22] of 9.6% and a viability, T/C [23] of 26.3%. It also gave a viability, T/C [24] of 19.7%, a viability, T/C [25] of 12.6% and a viability, T/C [26] of 8.37%. It also gave a viability, T/C [27] of 8.01%, a viability, T/C [28] of 8.06% and a viability, T/C (second compound 10 µM, first compound 0.0316 µM) of 24.1%. The viability, T/C (second compound 10 µM, first compound 0.1 µM) was 17.6%, the viability, T/C (second compound 10 µM, first compound 0.316 µM) was 11% and the viability, T/C (second compound 10 µM, first compound 1 µM) was 8.12%. It also gave a viability, T/C (second compound 10 µM, first compound 3.16 µM) of 6.93% and a viability, T/C (second compound 10 µM, first compound 10 µM) of 7.35%.

For `CC1COCCN1c1cc(-c2ccnn2C)c2ccnc(-c3ccn[nH]3)c2n1` (configuration not stated), the viability, T/C (compound 0.01 µM) was 48% [middle of 5 runs], the viability, T/C (compound 0.0316 µM) was 23.6% [middle of 5 runs] and the viability, T/C (compound 0.1 µM) was 16.1% [middle of 5 runs]. The viability, T/C (compound 0.316 µM) was 14.2% [middle of 5 runs], the viability, T/C (compound 1 µM) was 14.4% [middle of 5 runs] and the viability, T/C (compound 3.16 µM) was 16% [middle of 5 runs]. The IC50 (curve of compound) was under 0.01 µM.
